Here are results for 1 substance from US20100158846A1, “HAIR-BINDING PEPTIDES” (E. I. DU PONT DE NEMOURS AND COMPANY, priority 2008, published 2010).

For the assay the following is noted: biotinylated peptide binding to gray human hair bundle; streptavidin-HRP/TMB, A450; calculated from Scatchard plots. As for the experimental part:
Then, the streptavidin-horseradish peroxidase (HRP) conjugate (Pierce Chemical Co., Rockford, Ill.) was added to each well (1.0 μg per well), and incubated for 1 h at room temperature, followed by 6 times of washes with TBST. […] The results were plotted as A450 versus the concentration of peptide using GraphPad Prism 4.0 (GraphPad Software, Inc., San Diego, Calif.).

In the case of “PLWRRITKRKLVRPVATLMWYWFTSKR-K(biotin)-NH2 [CXH-G2]”, the MB50 was 72 nM.
